Reference: patent US20240181087A1, “COMPOSITION FOR CONTRAST IMAGING OF CANCER” (ASTELLAS PHARMA INC., priority 2021, published 2024)

Test system: human neuroblastoma cells SH-SY5Y
Experiment: near-infrared fluorescence imaging after topical administration into tumor, human neuroblastoma subcutaneous transplant model
Type: in vivo
Details: SCID mouse, 0.02 to 0.1 mL of 1 mg/mL, 1 hour after administration
Experimental: A human cancer cell transplant model mouse was created as follows: • (Head and neck/tongue cancer) To immunodeficient SCID mice (weight: 17 g to 23 g), about 10^6 human tongue cancer cells CAL27 (purchased from American Type Culture Collection: ATCC) were subcutaneously administered, and the resultant mice were grown for 49 days to create tumor models. • (Brain cancer/neuroblastoma) To immunodeficient SCID mice (weight: 17 g to 23 g), about 10^6 human neuroblastoma cells SH-SY5Y (purchased from ATCC) were subcutaneously administered, and the resultant mice were grown for 90 days to create tumor models. • (Brain cancer/glioblastoma) To immunodeficient SCID mice (weight: 17 g to 23 g), about 10^6 human glioblastoma cells U-251MG (obtained from European Collection of Authenticated Cell Cultures) were subcutaneously administered, and the resultant mice were grown for 90 days to create tumor models.
Subsequently, to the tumor of each of the mouse models, 0.02 to 0.1 mL of a saline containing the compound III (concentration of the compound III: 1 mg/mL) was topically administered, and fluorescence imaging was conducted transdermally with a near-infrared fluorescence camera (Fluobeam, manufactured by Fluoptics) (excitation wavelength: 780 nm, detection wavelength: 800 nm or more).

COC1=C(/C=C/C2=[N+](CCC(=O)NCCCO[C@H]3[C@H]4O[C@H]5[C@H](O)[C@@H](O)[C@@H](O[C@H]6[C@H](O)[C@@H](O)[C@@H](O[C@H]7[C@H](O)[C@@H](O)[C@@H](O[C@H]8[C@H](O)[C@@H](O)[C@@H](O[C@H]9[C@H](O)[C@@H](O)[C@@H](O[C@H]%10[C@H](O)[C@@H](O)[C@@H](O[C@@H]([C@@H]3O)[C@@H](CO)O4)O[C@@H]%10CO)O[C@@H]9CO)O[C@@H]8CO)O[C@@H]7CO)O[C@@H]6CO)O[C@@H]5CO)c3ccc4ccccc4c3C2(C)C)CCC/C1=C\C=C1\N(CCC(=O)NCCCO[C@H]2[C@H]3O[C@H]4[C@H](O)[C@@H](O)[C@@H](O[C@H]5[C@H](O)[C@@H](O)[C@@H](O[C@H]6[C@H](O)[C@@H](O)[C@@H](O[C@H]7[C@H](O)[C@@H](O)[C@@H](O[C@H]8[C@H](O)[C@@H](O)[C@@H](O[C@H]9[C@H](O)[C@@H](O)[C@@H](O[C@@H]([C@@H]2O)[C@@H](CO)O3)O[C@@H]9CO)O[C@@H]8CO)O[C@@H]7CO)O[C@@H]6CO)O[C@@H]5CO)O[C@@H]4CO)c2ccc3ccccc3c2C1(C)C.[Cl-] [compound III, 3-(3-{[3-(cyclomaltoheptaose-21-O-yl)propyl]amino}-3-oxopropyl)-2-{(1E)-2-[(3E)-3-{(2E)-2-[3-(3-{[3-(cyclomaltoheptaose-21-O-yl)propyl]amino}-3-oxopropyl)-1,1-dimethyl-1,3-dihydro-2H-benzo[e]indol-2-ylidene]ethylidene}-2-methoxycyclohexa-1-en-1-yl]ethene-1-yl}-1,1-dimethyl-1H-benzo[e]indol-3-ium chloride]
retention inside the tumor (fluorescence imaging): retained inside the tumor
